From PubChem BioAssay AID256 (DTP/NCI, 2004)
Values joined by “and” are separate entries in the source; they are usually repeats but may differ in a detail not shown here. Identical values can stand only once. Inconclusive results and toxic doses are left out. The calls were made as follows: active = survival T/C of 150% or more; inactive = T/C below 125% in these data.

Test system: CD2F1 mice, L1210 leukemia ip, survival T/C
Test: NCI In Vivo Anticancer Drug Screen. Data for tumor model L1210 Leukemia (intraperitoneal) in CD2F1 (CDF1) mice
Conditions: higher = longer survival
Procedure, shortened: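 Each value reflects a quotient of treated over vehicle control outcomes in mice with a transplanted tumor.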

[1] = endpoint: mean survival time, dose: 75.0 mg/kg/injection, schedule: Q01DX001 (ip), vehicle: saline
[2] = endpoint: mean survival time, dose: 100.0 mg/kg/injection, schedule: Q01DX009 (ip), vehicle: acetone
[3] = endpoint: mean survival time, dose: 100.0 mg/kg/injection, schedule: Q04DX003 (ip), vehicle: saline with Tween-80
[4] = endpoint: mean survival time, dose: 200.0 mg/kg/injection, schedule: Q01DX009 (ip), vehicle: acetone
[5] = endpoint: mean survival time, dose: 200.0 mg/kg/injection, schedule: Q04DX003 (ip), vehicle: saline with Tween-80
[6] = endpoint: mean survival time, dose: 400.0 mg/kg/injection, schedule: Q01DX009 (ip), vehicle: acetone
[7] = endpoint: mean survival time, dose: 400.0 mg/kg/injection, schedule: Q04DX003 (ip), vehicle: saline with Tween-80
[8] = endpoint: mean survival time, dose: 100.0 mg/kg/injection, schedule: Q01DX001 (ip), vehicle: saline with Tween-80
[9] = endpoint: mean survival time, dose: 200.0 mg/kg/injection, schedule: Q01DX001 (ip), vehicle: saline with Tween-80
[10] = endpoint: mean survival time, dose: 400.0 mg/kg/injection, schedule: Q01DX001 (ip), vehicle: saline with Tween-80
[11] = endpoint: mean survival time, dose: 100.0 mg/kg/injection, schedule: Q01DX009 (ip), vehicle: saline with Tween-80
[12] = endpoint: mean survival time, dose: 200.0 mg/kg/injection, schedule: Q01DX009 (ip), vehicle: saline with Tween-80
[13] = endpoint: mean survival time, dose: 100.0 mg/kg/injection, schedule: Q01DX009 (ip), vehicle: saline sonified
[14] = endpoint: mean survival time, dose: 200.0 mg/kg/injection, schedule: Q01DX009 (ip), vehicle: saline sonified

Measured: T/C

CO[C@]12[C@@H](COC(=O)NCCO)C3=C(C(=O)C(C)=C(N)C3=O)N1C[C@@H]1[C@H]2N1C (some centres not stated)
inactive: endpoint: mean survival time, dose: 12.5 mg/kg/injection, schedule: Q01DX009 (ip), vehicle: saline 112 % of control | endpoint: mean survival time, dose: 50.0 mg/kg/injection, schedule: Q01DX009 (ip), vehicle: saline 119 % of control | [1] 114 % of control | endpoint: mean survival time, dose: 150.0 mg/kg/injection, schedule: Q01DX001 (ip), vehicle: saline 116 % of control | endpoint: mean survival time, dose: 200.0 mg/kg/injection, schedule: Q01DX009 (ip), vehicle: saline 112 % of control

CCS(=O)(=O)C(CCC#N)(CCC#N)S(=O)(=O)CC
inactive: endpoint: mean survival time, dose: 100.0 mg/kg/injection, schedule: Q01DX001 (ip), vehicle: saline 95 % of control | endpoint: mean survival time, dose: 200.0 mg/kg/injection, schedule: Q01DX001 (ip), vehicle: saline 103 % of control

O=[N+]([O-])c1ccc(/C=C/C=C\c2cccc(S(=O)(=O)F)c2)c(Cl)c1
inactive: [2] 100 % of control | [3] 102 % of control | [4] 104 % of control | [5] 97 % of control | [6] 104 % of control | [7] 94 % of control

C/C(=N\NC(N)=S)c1ccc2cc3c(cc2c1)OCO3
inactive: [1] 119 % of control

CCOC(=O)c1ncc(Cl)cc1N
inactive: endpoint: mean survival time, dose: 50.0 mg/kg/injection, schedule: Q01DX009 (ip), vehicle: Klucel (hydroxypropylcellulose) (HPC) 97 % of control

O=C(O)/C=C/C(=O)O
inactive: [8] 93 % of control and 88 % of control | [3] 100 % of control | [9] 94 % of control | [10] 91 % of control

N=C(N)SCc1c(Cl)c(Cl)c(Cl)c(Cl)c1Cl
inactive: endpoint: mean survival time, dose: 25.0 mg/kg/injection, schedule: Q04DX002 (ip), vehicle: saline with Tween-80 103 % of control | endpoint: mean survival time, dose: 50.0 mg/kg/injection, schedule: Q04DX002 (ip), vehicle: saline with Tween-80 98 % of control | endpoint: mean survival time, dose: 100.0 mg/kg/injection, schedule: Q04DX002 (ip), vehicle: saline with Tween-80 98 % of control

OCCOc1ccc(Cl)cc1
inactive: [11] 104 % of control | [3] 96 % of control | [12] 100 % of control | [5] 96 % of control | [7] 103 % of control

O=C(c1ccccc1)c1c[nH]c2ccccc12
inactive: [3] 100 % of control | [5] 86 % of control | [7] 90 % of control

CC(C)OC(=O)Nc1ccc(F)c(C(F)(F)F)c1
inactive: [3] 96 % of control | [5] 96 % of control | [7] 94 % of control

O=C1NCC(Br)C(=O)N1 (configuration not stated)
inactive: endpoint: mean survival time, dose: 6.25 mg/kg/injection, schedule: Q01DX009 (ip), vehicle: saline + Tween-80 + alcohol 102 % of control | endpoint: mean survival time, dose: 12.5 mg/kg/injection, schedule: Q01DX009 (ip), vehicle: saline + Tween-80 + alcohol 100 % of control and 109 % of control | endpoint: mean survival time, dose: 12.5 mg/kg/injection, schedule: Q01DX009 (ip), vehicle: saline with Tween-80 93 % of control | endpoint: mean survival time, dose: 25.0 mg/kg/injection, schedule: Q01DX009 (ip), vehicle: saline + Tween-80 + alcohol 93 % of control and 100 % of control | endpoint: mean survival time, dose: 25.0 mg/kg/injection, schedule: Q01DX009 (ip), vehicle: saline with Tween-80 96 % of control | endpoint: mean survival time, dose: 50.0 mg/kg/injection, schedule: Q01DX009 (ip), vehicle: saline + Tween-80 + alcohol 102 % of control | endpoint: mean survival time, dose: 50.0 mg/kg/injection, schedule: Q01DX009 (ip), vehicle: saline with Tween-80 94 % of control | endpoint: mean survival time, dose: 100.0 mg/kg/injection, schedule: Q01DX009 (ip), vehicle: saline + Tween-80 + alcohol 101 % of control and 105 % of control | [11] 102 % of control | endpoint: mean survival time, dose: 200.0 mg/kg/injection, schedule: Q01DX009 (ip), vehicle: saline + Tween-80 + alcohol 113 % of control and 100 % of control | [12] 90 % of control | endpoint: mean survival time, dose: 400.0 mg/kg/injection, schedule: Q01DX009 (ip), vehicle: saline + Tween-80 + alcohol 86 % of control

O=[N+]([O-])c1c[nH]n2c([N+](=O)[O-])cnc12
inactive: endpoint: mean survival time, dose: 12.5 mg/kg/injection, schedule: Q01DX009 (ip), vehicle: water 96 % of control | endpoint: mean survival time, dose: 25.0 mg/kg/injection, schedule: Q01DX009 (ip), vehicle: water 97 % of control

Cc1cc2c(=O)cc(-c3ccccc3)oc2c(C(=O)O)c1C
inactive: endpoint: median survival time, dose: 31.75 mg/kg/injection, schedule: Q01DX005 (ip), vehicle: saline with Tween-80 109 % of control | endpoint: median survival time, dose: 62.5 mg/kg/injection, schedule: Q01DX005 (ip), vehicle: saline with Tween-80 106 % of control | endpoint: median survival time, dose: 125.0 mg/kg/injection, schedule: Q01DX005 (ip), vehicle: saline with Tween-80 104 % of control | endpoint: median survival time, dose: 250.0 mg/kg/injection, schedule: Q01DX005 (ip), vehicle: saline with Tween-80 102 % of control

Cc1ccc(N2C(=O)C=CC2=O)cc1
inactive: endpoint: mean survival time, dose: 5.0 mg/kg/injection, schedule: Q01DX009 (ip), vehicle: saline sonified 94 % of control | endpoint: mean survival time, dose: 5.0 mg/kg/injection, schedule: Q04DX003 (ip), vehicle: saline sonified 96 % of control | endpoint: mean survival time, dose: 10.0 mg/kg/injection, schedule: Q04DX003 (ip), vehicle: saline sonified 98 % of control | endpoint: mean survival time, dose: 20.0 mg/kg/injection, schedule: Q01DX009 (ip), vehicle: saline sonified 90 % of control | endpoint: mean survival time, dose: 20.0 mg/kg/injection, schedule: Q04DX003 (ip), vehicle: saline sonified 96 % of control | [2] 88 % of control | [4] 88 % of control | [6] 93 % of control

CCCC(NC(=O)CN)C(=O)O (configuration not stated)
inactive: endpoint: mean survival time, dose: 100.0 mg/kg/injection, schedule: Q04DX003 (ip), vehicle: saline 100 % of control | endpoint: mean survival time, dose: 200.0 mg/kg/injection, schedule: Q04DX003 (ip), vehicle: saline 97 % of control | endpoint: mean survival time, dose: 400.0 mg/kg/injection, schedule: Q04DX003 (ip), vehicle: saline 102 % of control

CC1CC(C)(C)N=C(CC(=O)N2Cc3cc4ccccc4nc3C2)O1 (configuration not stated)
inactive: [8] 96 % of control | [9] 104 % of control | [10] 96 % of control

O=C(O)CC1OCC=C2C[N+]3([O-])CCC45c6ccccc6NC4C1C2CC53 (configuration not stated)
inactive: endpoint: mean survival time, dose: 75.0 mg/kg/injection, schedule: Q01DX001 (ip), vehicle: other 100 % of control | endpoint: mean survival time, dose: 150.0 mg/kg/injection, schedule: Q01DX001 (ip), vehicle: other 98 % of control

CCOC(=O)C1=C(C)NC(C)=C(C(=O)OCC)C1c1ccccc1Cl
inactive: endpoint: mean survival time, dose: 12.5 mg/kg/injection, schedule: Q01DX009 (ip), vehicle: acetone 102 % of control | endpoint: mean survival time, dose: 25.0 mg/kg/injection, schedule: Q01DX009 (ip), vehicle: acetone 100 % of control | endpoint: mean survival time, dose: 50.0 mg/kg/injection, schedule: Q01DX009 (ip), vehicle: acetone 104 % of control

N=C(N)[Se]
inactive: [3] 95 % of control | [5] 101 % of control | [7] 95 % of control

Cn1c(=O)c2[nH]cnc2n(C)c1=O (tested in a mixture with another compound)
inactive: endpoint: mean survival time, dose: 50.0 mg/kg/injection, schedule: Q01DX009 (ip), vehicle: saline sonified 98 % of control | [13] 98 % of control | [14] 98 % of control

NC(=O)COc1c(I)cc(I)cc1I
inactive: [13] 101 % of control | [3] 98 % of control | [14] 92 % of control | [5] 98 % of control | endpoint: mean survival time, dose: 400.0 mg/kg/injection, schedule: Q01DX009 (ip), vehicle: saline sonified 89 % of control | [7] 96 % of control
